Results on three molecules are retold here after publication PMC11669383, “Modulating Liposome Surface Charge for Maximized ATP Regeneration in Synthetic Nanovesicles” (ACS Synthetic Biology, 2024).

Common to all, as to assay: coupled ATP synthesis in proteoliposomes, luciferase luminescence
The target in data set [1] is T1, quinone-fumarate oxidoreductase (FRD) (Escherichia coli, UniProt P00363).
T1 construct: gene frdA; coreconstituted in liposomes; with Fumarate reductase iron-sulfur subunit; Fumarate reductase subunit C; Fumarate reductase subunit D
T1 sequence (P00363 2-602, other chains not shown): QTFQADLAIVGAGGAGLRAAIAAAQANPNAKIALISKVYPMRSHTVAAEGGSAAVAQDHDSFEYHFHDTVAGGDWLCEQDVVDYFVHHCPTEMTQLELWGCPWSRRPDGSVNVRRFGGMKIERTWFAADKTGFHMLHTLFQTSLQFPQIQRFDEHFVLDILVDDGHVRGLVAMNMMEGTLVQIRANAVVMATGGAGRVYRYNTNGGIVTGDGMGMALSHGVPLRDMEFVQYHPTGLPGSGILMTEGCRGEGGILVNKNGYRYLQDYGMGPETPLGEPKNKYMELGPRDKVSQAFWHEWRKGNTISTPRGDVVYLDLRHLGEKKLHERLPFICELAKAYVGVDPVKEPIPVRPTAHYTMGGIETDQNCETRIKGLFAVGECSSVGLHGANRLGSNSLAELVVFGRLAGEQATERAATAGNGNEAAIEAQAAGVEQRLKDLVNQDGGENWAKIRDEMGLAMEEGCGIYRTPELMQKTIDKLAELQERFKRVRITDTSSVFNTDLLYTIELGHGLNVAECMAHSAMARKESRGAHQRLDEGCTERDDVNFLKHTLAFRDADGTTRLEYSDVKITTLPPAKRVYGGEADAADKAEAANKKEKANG
T1 sequence (P0AC47 2-244 partner, other chains not shown): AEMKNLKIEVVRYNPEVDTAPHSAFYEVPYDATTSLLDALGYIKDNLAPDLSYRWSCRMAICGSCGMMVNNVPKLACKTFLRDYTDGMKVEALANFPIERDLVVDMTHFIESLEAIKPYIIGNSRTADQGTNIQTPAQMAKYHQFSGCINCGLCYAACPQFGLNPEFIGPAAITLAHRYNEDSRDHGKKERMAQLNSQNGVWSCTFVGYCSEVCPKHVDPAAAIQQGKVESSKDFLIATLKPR
T1 sequence (P0A8Q0 whole entry partner, other chains not shown): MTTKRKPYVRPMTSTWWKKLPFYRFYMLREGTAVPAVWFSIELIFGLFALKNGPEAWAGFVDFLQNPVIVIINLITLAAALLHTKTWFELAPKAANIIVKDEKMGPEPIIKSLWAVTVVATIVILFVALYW
It is filed as biochemical.

Data set [2] concerns the target T1, quinone-fumarate oxidoreductase (FRD). The class given is biochemical. To be noted: bo3 oxidase and ATP synthase coreconstituted in E. coli polar lipid liposomes, 2 mol % ubiquinone Q8, succinate 1-2000 μM, pH 7.5, read-out is the coupled rate, read-out: apparent KM.
Substrate in data set [3]: NC(=O)C1=CN([C@@H]2O[C@H](COP(=O)(O)OP(=O)(O)OC[C@H]3O[C@@H](n4cnc5c(N)ncnc54)[C@H](O)[C@@H]3O)[C@@H](O)[C@H]2O)C=CC1
It is filed as biochemical, Escherichia coli. To be noted: NDH-2 added to liposomes with bo3 oxidase, FRD and ATP synthase, 2 mol % ubiquinone Q8, NADH 5-200 μM, pH 7.5, read-out is the coupled rate.

On to `O=C(O)CC(=O)O` [malonate], for which, in data set [1], the “coupled ATP synthesis in proteoliposomes, luciferase luminescence” value is recorded as “The reaction was sensitive to the complex II inhibitor malonate”. On to `O=C(O)CCC(=O)O` [succinate], for which the Km in data set [2] worked out at 62.2 µM.

B1: NADH dehydrogenase II (NDH-2) (Escherichia coli K-12) (protein)
chain: TTPLKKIVIVGGGAGGLEMATQLGHKLGRKKKAKITLVDRNHSHLWKPLLHEVATGSLDEGVDALSYLAHARNHGFQFQLGSVIDIDREAKTITIAELRDEKGELLVPERKIAYDTLVMALGSTSNDFNTPGVKENCIFLDNPHQARRFHQEMLNLFLKYSANLGANGKVNIAIVGGGATGVELSAELHNAVKQLHSYGYKGLTNEALNVTLVEAGERILPALPPRISAAAHNELTKLGVRVLTQTMVTSADEGGLHTKDGEYIEADLMVWAAGIKAPDFLKDIGGLETNRINQLVVEPTLQTTRDPDIYAIGDCASCPRPEGGFVPPRAQAAHQMATCAMNNILAQMNGKPLKNYQYKDHGSLVSLSNFSTVGSLMGNLTRGSMMIEGRIARFVYISLYRMHQIALHGYFKTGLMMLVGSINRVIRPRLKLH
notes: 45 kDa peripheral membrane protein with FAD
Consider B1, for which the Km in data set [3] worked out at 18.5 µM.

Usually Km stands for the concentration of substrate that gives half-maximal velocity.
